This passage reports pKB, Ki and dose ratio results from ChEMBL document CHEMBL1135768, “Design, synthesis, and SAR of tachykinin antagonists: modulation of balance in NK(1)/NK(2) receptor antagonist activity” (J Med Chem, 2002).

In assay [1] the target is T1, Substance-K receptor (Oryctolagus cuniculus) (UniProt P79218).
T1 sequence (whole entry): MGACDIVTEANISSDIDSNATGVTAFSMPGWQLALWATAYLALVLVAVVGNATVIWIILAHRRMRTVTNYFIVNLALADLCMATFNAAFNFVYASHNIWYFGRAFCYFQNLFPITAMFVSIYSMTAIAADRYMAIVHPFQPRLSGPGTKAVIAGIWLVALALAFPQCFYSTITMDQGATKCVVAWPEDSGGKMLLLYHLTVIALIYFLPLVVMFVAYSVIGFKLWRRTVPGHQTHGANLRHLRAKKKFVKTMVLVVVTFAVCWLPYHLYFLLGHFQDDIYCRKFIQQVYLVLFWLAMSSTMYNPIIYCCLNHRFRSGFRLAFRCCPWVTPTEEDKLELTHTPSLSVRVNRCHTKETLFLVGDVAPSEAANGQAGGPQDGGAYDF
The experiment in a line: Tested for the binding affinity towards tachykinin receptor 2 (NK2) in rabbit pulmonary artery tissue.

For assay [2], the system named is Substance-P receptor (Oryctolagus cuniculus). Briefly: Tested for the binding affinity towards tachykinin receptor 1 (NK1) in rabbit pulmonary artery tissue.
In assay [3] the target is T2, Neuromedin-K receptor (Homo sapiens, UniProt P29371).
T2 sequence (P29371 whole entry): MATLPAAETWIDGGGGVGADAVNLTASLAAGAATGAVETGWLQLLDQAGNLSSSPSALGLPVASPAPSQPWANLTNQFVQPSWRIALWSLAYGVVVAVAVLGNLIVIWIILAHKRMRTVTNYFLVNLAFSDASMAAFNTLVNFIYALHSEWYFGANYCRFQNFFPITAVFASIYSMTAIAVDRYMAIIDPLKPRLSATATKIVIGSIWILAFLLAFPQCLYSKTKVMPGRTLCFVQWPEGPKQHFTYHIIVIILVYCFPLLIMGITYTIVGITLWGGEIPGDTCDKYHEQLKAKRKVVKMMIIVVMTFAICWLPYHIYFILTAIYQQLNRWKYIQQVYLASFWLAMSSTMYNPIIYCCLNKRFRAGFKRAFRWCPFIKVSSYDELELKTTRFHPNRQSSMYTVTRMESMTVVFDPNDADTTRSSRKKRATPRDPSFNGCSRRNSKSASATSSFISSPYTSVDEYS
Briefly: Inhibition of binding of [125I]MPNI to human Tachykinin receptor 3 (NK3) expressed in mouse erythroleukemia cells. It counts as cell-based.

For assay [4], the target named is T3, Substance-K receptor (Homo sapiens, UniProt P21452).
T3 sequence (P21452 whole entry): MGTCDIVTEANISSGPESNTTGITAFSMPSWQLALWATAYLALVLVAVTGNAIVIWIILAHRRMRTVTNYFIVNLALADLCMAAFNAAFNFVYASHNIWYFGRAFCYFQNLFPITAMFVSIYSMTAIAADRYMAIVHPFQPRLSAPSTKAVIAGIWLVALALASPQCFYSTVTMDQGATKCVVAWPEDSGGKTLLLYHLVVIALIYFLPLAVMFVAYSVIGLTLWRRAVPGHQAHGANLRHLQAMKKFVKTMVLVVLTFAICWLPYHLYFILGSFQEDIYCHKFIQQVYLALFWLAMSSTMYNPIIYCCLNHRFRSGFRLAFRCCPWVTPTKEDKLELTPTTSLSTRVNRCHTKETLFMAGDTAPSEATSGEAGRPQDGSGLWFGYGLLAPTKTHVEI
The experiment in a line: Inhibition of binding of [3H]NKA to human Tachykinin receptor 2 (NK2) expressed in mouse erythroleukemia cells. Format: cell-based.

For assay [5], the target named is Substance-P receptor (Cavia porcellus) (UniProt P30547). The experiment in a line: In vivo potency as dose ratio (ED50 ratio for Tachykinin receptor 1 in presence and absence of antagonist) in guinea pig PMM after oral administration at a dose 30 uM/Kg.
Substance-P receptor (Cavia porcellus), sequence (P30547 whole entry): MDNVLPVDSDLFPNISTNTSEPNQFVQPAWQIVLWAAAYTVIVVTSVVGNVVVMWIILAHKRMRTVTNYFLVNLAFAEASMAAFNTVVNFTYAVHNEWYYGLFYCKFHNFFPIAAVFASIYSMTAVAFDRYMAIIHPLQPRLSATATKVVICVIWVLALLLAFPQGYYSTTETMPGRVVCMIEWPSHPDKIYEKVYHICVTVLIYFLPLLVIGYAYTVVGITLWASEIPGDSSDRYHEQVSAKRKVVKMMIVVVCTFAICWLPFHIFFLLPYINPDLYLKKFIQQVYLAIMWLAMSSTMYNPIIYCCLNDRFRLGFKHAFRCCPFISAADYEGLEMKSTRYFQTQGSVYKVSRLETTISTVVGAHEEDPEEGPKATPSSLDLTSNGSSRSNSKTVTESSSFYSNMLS
The target in assay [6] is T4, Substance-K receptor (Cavia porcellus) (UniProt Q64077).
T4 sequence (whole entry): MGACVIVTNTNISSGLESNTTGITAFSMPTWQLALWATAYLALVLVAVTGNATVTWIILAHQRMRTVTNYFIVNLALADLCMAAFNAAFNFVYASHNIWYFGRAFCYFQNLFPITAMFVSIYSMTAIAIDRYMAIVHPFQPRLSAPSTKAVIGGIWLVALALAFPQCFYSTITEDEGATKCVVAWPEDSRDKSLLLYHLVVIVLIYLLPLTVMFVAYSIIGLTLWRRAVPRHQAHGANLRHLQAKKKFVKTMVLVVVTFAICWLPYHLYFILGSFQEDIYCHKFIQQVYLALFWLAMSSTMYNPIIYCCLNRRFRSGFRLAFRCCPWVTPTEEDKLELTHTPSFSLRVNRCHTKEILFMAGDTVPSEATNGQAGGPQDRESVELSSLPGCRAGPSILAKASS
Briefly: In vivo potency as dose ratio (ED50 ratio for Tachykinin receptor 2 (NK2) in presence and absence of antagonist) in guinea pig PMM after oral administration at a dose 30 uM/Kg.

Assay [7] addresses Substance-P receptor (Cavia porcellus) (UniProt P30547). The experiment in a line: In vivo potency as dose ratio (ED50 ratio for Tachykinin receptor 1 in presence and absence of antagonist) in guinea pig PMM after intravenous administration at a dose 10 uM/Kg.
The target in assay [8] is T4, Substance-K receptor (Cavia porcellus). The experiment in a line: In vivo potency as dose ratio (ED50 ratio for Tachykinin receptor 2 (NK2) in presence and absence of antagonist) in guinea pig PMM after intravenous administration at a dose 10 uM/Kg.

`CN(C[C@@H](CCN1CCC(c2cc(Br)ccc2[S+](C)[O-])CC1)c1ccc(Cl)c(Cl)c1)C(=O)c1cc(C#N)cc2ccccc12` (mixture of isomers): the figures for the pKB in assay [1] and in assay [2] were 8.55 and 8.46, respectively.
In the case of `COc1ccc2c(C(=O)N(C)C[C@@H](CCN3CCC(c4ccccc4[S@+](C)[O-])CC3)c3ccc(Cl)c(Cl)c3)cc(C#N)cc2c1`, the pKB – broadly, −log10 of the KB, conventionally taken in molar units – in assay [1] came out at 7.97; in assay [2], 7.
Taken in the same sequence, the figures for `CNC(=O)C1(N2CCCNC2=O)CCN(CC[C@H](CN(C)C(=O)c2cc(C#N)cc3ccccc23)c2ccc(Cl)c(Cl)c2)CC1` were 8.22 and 7.6.
The compound `CN(C[C@@H](CCN1CCC(c2ccccc2[S+](C)[O-])CC1)c1ccc(Cl)c(Cl)c1)C(=O)c1cc(C#N)cc2ccccc12` (mixture of isomers) had a pKB in assay [1] of 8.48.
As to `CN(C[C@@H](CCN1CCC(c2ccccc2[S@+](C)[O-])CC1)c1ccc(Cl)c(Cl)c1)C(=O)c1cc(C#N)c(Br)c2ccccc12`, the negative-log KB (pKB) in assay [1] was found to be 6.99; in assay [2] it was 7.78.
For `CN(C[C@@H](CCN1CCC(c2cc(F)ccc2[S+](C)[O-])CC1)c1ccc(Cl)c(Cl)c1)C(=O)c1cc(C#N)cc2ccccc12` (mixture of isomers), in that order: 8.34 and 8.26.
Taken in the same sequence, the figures for `CN(C[C@@H](CCN1CCC(c2ccc([S+](C)[O-])cc2[S+](C)[O-])CC1)c1ccc(Cl)c(Cl)c1)C(=O)c1cc(C#N)cc2ccccc12` (mixture of isomers) were 8.27 and 7.33.
For `CN(C[C@@H](CCN1CCC(c2ccccc2[S@+](C)[O-])CC1)c1ccc(Cl)c(Cl)c1)C(=O)c1cc(C#N)cc2cc(O)ccc12`, the figures for the pKB in assay [1] and in assay [2] were 7.31 and 8.02, respectively.
For `CN(C[C@@H](CCN1CCC(c2ccccc2[S@+](C)[O-])CC1)c1ccc(Cl)c(Cl)c1)C(=O)c1cc(C#N)c(C#N)c2ccccc12`, the figures for the pKB in assay [1] and in assay [2] were 7.65 and 7.76, respectively.
Regarding `CN(C[C@@H](CCN1CCC(c2ccc(O)cc2[S+](C)[O-])CC1)c1ccc(Cl)c(Cl)c1)C(=O)c1cc(C#N)cc2ccccc12` (mixture of isomers), the values for the pKB in assay [1] and in assay [2] were 8.34 and 8.93, respectively.
Regarding `CNC(=O)C1(N2CCCCC2=O)CCN(CC[C@H](CN(C)C(=O)c2cc(C#N)cc3ccccc23)c2ccc(Cl)c(Cl)c2)CC1`, the figures for the pKB in assay [1] and in assay [2] were 8.44 and 7.33, respectively.
Taken in the same sequence, the figures for `Cc1c(C#N)cc(C(=O)N(C)C[C@@H](CCN2CCC(c3ccccc3[S@+](C)[O-])CC2)c2ccc(Cl)c(Cl)c2)c2ccccc12` were 7.8 and 8.53.
Take `CNC(=O)C1(N2CCOCC2=O)CCN(CC[C@H](CN(C)C(=O)c2cc(C#N)cc3ccccc23)c2ccc(Cl)c(Cl)c2)CC1`: the pKB turned out to be 7.81 in assay [1] and 7.51 in assay [2].
Take `CCN1C(=O)c2ccccc2[C@H]1[C@@H](CCN1CCC(c2ccccc2[S@+](C)[O-])CC1)c1ccc(Cl)c(Cl)c1`: the results for the Ki in assay [3] and in assay [4] were 9.19 µM and 0.00092 µM, respectively.
For the compound `COc1c(C#N)cc2ccccc2c1C(=O)N(C)C[C@@H](CCN1CCC(N2CCCNC2=O)CC1)c1ccc(Cl)c(Cl)c1`, the negative-log KB (pKB) in assay [1] turned out to be 7.92; in assay [2] it was 8.45.
Take `CN(C[C@@H](CCN1CCC(c2ccc(F)cc2[S@+](C)[O-])CC1)c1ccc(Cl)c(Cl)c1)C(=O)c1cc(C#N)cc2ccccc12`: the pKB was 8.38 in assay [1] and 8.01 in assay [2]. The dose ratio in assay [5] is 4; in assay [6], 5; in assay [7], 126; in assay [8], 153.
For the compound `CN(C[C@@H](CCN1CCC(c2c(F)cccc2[S+](C)[O-])CC1)c1ccc(Cl)c(Cl)c1)C(=O)c1cc(C#N)cc2ccccc12` (stereo partly drawn), the values for the pKB in assay [1] and in assay [2] were 6.83 and 7.25, respectively.
For `CNC(=O)C1(N2CCCNC2=O)CCN(CC[C@H](CN(C)C(=O)c2c(OC)c(C#N)cc3ccccc23)c2ccc(Cl)c(Cl)c2)CC1`, in that order: 8.11 and 8.14.
For `CN(C[C@@H](CCN1CCC(N2CCCNC2=O)CC1)c1ccc(Cl)c(Cl)c1)C(=O)c1cc(C#N)cc2ccccc12`, in that order: 7.86 and 8.18.
`CNC(=O)C1(N2CCOCC2=O)CCN(CC[C@H](CN(C)C(=O)c2c(OC)c(C#N)cc3ccccc23)c2ccc(Cl)c(Cl)c2)CC1`: the pKB in assay [1] was 7.79; in assay [2] it was 8.55.
`CN(C[C@@H](CCN1CCC(c2ccc(C(N)=O)cc2[S+](C)[O-])CC1)c1ccc(Cl)c(Cl)c1)C(=O)c1cc(C#N)cc2ccccc12` (mixture of isomers): the figures for the negative logarithm of the KB (pKB) in assay [1] and in assay [2] were 6.92 and 8.53, respectively.
Taken in the same sequence, the figures for `COc1c(C#N)cc2ccccc2c1C(=O)N(C)C[C@@H](CCN1CCC(C(=O)N(C)C)(N2CCCCC2=O)CC1)c1ccc(Cl)c(Cl)c1` were 7.7 and 7.88.
Taken in the same sequence, the figures for `CN(C[C@@H](CCN1CCC(c2ccc(C(=O)O)cc2[S+](C)[O-])CC1)c1ccc(Cl)c(Cl)c1)C(=O)c1cc(C#N)cc2ccccc12` (mixture of isomers) were 6.38 and 7.87.
Turning to `CN(C)C(=O)C1(N2CCCCC2=O)CCN(CC[C@H](CN(C)C(=O)c2cc(C#N)cc3ccccc23)c2ccc(Cl)c(Cl)c2)CC1`, the pKB in assay [1] stood at 8.52; in assay [2] it was 7.36.
`COC(=O)c1ccc(C2CCN(CC[C@H](CN(C)C(=O)c3c(OC)c(C#N)cc4ccccc34)c3ccc(Cl)c(Cl)c3)CC2)c([S+](C)[O-])c1` (stereo partly drawn): the pKB is under 7 in assay [1] and 8.85 in assay [2].
For `CN(C[C@@H](CCN1CCC(c2ccccc2[S@+](C)[O-])CC1)c1ccc(Cl)c(Cl)c1)C(=O)c1cc(C#N)c(F)c2ccccc12`, in that order: 6.2 and 6.75.
Regarding `CN(C[C@@H](CCN1CCC(c2ccc(Br)cc2[S@+](C)[O-])CC1)c1ccc(Cl)c(Cl)c1)C(=O)c1cc(C#N)cc2ccccc12`, the pKB in assay [1] amounted to 8.12; in assay [2], 8. The dose ratio in assay [7] is 11; in assay [8] it was 30.
For `CN(C[C@@H](CCN1CCC(c2ccccc2[S@+](C)[O-])CC1)c1ccc(Cl)c(Cl)c1)C(=O)c1cc(C#N)cc2cc(C#N)ccc12`, the pKB in assay [1] stood at 6.42; in assay [2] it was 7.77.
In the case of `COC(=O)c1ccc(C2CCN(CC[C@H](CN(C)C(=O)c3cc(C#N)cc4ccccc34)c3ccc(Cl)c(Cl)c3)CC2)c([S+](C)[O-])c1` (mixture of isomers), the pKB in assay [1] is 6.84; in assay [2], 7.92.
